The record followed here is patent US20110275573A1, “TISSUE ADHESIVE” (METAMOREFIX LTD., priority 2008, published 2011).

Assay [1] has as its system human foreskin fibroblasts (FF1). In words: Cell attachment assay in monolayers (peptide-coated Sepharose beads). The assay is classed as cell-based. The procedure:
(§1) A peptide solution in coupling buffer prepared as above was immediately added to the activated Sepharose beads Sepharose beads were used to fixate the peptides for all in-vitro assays in the column to a final binding of 6 mg peptide per ml gel. The column was closed and shaken overnight at 4° C. very gently to avoid mechanical breakage of the beads. The bottom cap of the column was removed and the solution of ligand/buffer was collected as the Sepharose Beads settled on the filter. The OD280 of the collected buffer was checked to determine the concentration of uncoupled peptide. The gel was washed/aspirated with 5 volumes (˜2 ml) of coupling buffer and gently mixed. Any remaining active groups on the gel were blocked with blocking buffer for 2 hours at room temperature or overnight at 4° C. The Sepharose beads gel with peptides was then washed by 2 cycles each of 5 gel volumes of: • a. 0.1 M Acetate buffer • b. Coupling buffer • c. Storing buffer: azide-coupling buffer: coupling buffer containing 0.1% NaN3 (final concentration)
(§2) The tested peptides (Table 1) were coupled to Sepharose Beads at two concentrations: 6 and 12 mg/ml Sepharose Beads. Sepharose Beads that underwent the coupling procedure without peptide addition (“naked Sepharose Beads”) served as a negative control (referred to herein as “Sepharose Beads-blank”). A cell binding assay was performed with 2 normal cell types: bovine aortal endothelial cells (BAEC) and human foreskin fibroblasts (FF1). Sepharose beads were added to 12 well culture plates with sub-confluent monolayer of the cultured cells (100-300 beads were added to each well). The fraction of Sepharose beads attached to the monolayer was determined at different times.

The subject of assay [2] is bovine aortal endothelial cells (BAEC). The description is as above. Type of assay: cell-based. Particulars: for cell binding activity (BAEC), in words: 6 mg/ml. The procedure:
as §1, §2

Where [3] appears, read: FIG. 3a, concentration not given.

“Also recorded” adds a separate entry of the source.

With GGWTVFQRRMDGSVDFYRK [M-Fic-K], in assay [1] (6 mg peptide/ml), the “cell binding activity (FF1), in words” value is recorded as “dramatic change in activity”.
With GGWTVFQRRVDGSVDFYRK [M-Fic], the “binding rate of BAEC at the lower concentration” value in assay [2] (6 mg/ml compared with 12 mg/ml, FIG. 9) was “slight decrease”. The “Nomarsky optic microscopy of peptide coated beads attached to endothelial cells (BAEC)” value in assay [2] (3 weeks of incubation, x100, FIG. 12) is given as “formation of small tubes”. Besides, the “activity in forming bead-cell aggregates and tube like structures” value in assay [2] (longer incubation times, FIGS. 10-12) is “highest activity”. The “cell binding activity (FF1), in words” value in assay [1] (6 mg peptide/ml) is “initially inferior to the positive control; also recorded: retains its activity”; in assay [1] (6 mg peptide/ml, listed as M-fic) it was “retain most of its activity”. In addition, in assay [1] (6 mg/ml, FF1), the “time to reach saturated cell binding” value was at most 24 h. In assay [1] (after 3 days of incubation, x100, FIG. 10), the “Nomarsky optic microscopy of peptide coated beads attached to FF1” value is “aggregates of cells and beads formed”. Besides, in assay [1] (conclusions, cell type and concentration not stated), the “time to saturated attachment” value is 72 h.
With KGYKYSYKGGWTVFQRRMDGSVDFYR [C-M-Fic2], in assay [1] (setting [3]), the “cell binding of FF1 reached” value is on record as 100% and the “kinetic profile of cell binding of FF1” value was “good kinetic profile of cell binding (fast attachment)”.
As for “KGYKYSYKGGWTVFQRRMDGSVDFYRK [C-M-Fic2-K, C-M-Fic2 with the addition of a lysine group]”, in assay [1] (setting [3]), the “cell binding of FF1 reached” value is on record as 100% and the “kinetic profile of cell binding of FF1” value is listed as “good kinetic profile of cell binding (fast attachment)”.
In the case of “KGYKYSYKVSEMKFQRRMDGSVDFYRK [C-M-Fic-a-K]”, the “rate/kinetics of cell binding of FF1 compared with positive control PreC” value in assay [1] (6 mg peptide/ml, FIG. 1, FIG. 2) is “accelerated the kinetics of cell binding”.
With KGYKYSYKVSEMKVRPAK [C-Fic-a-K], the “cell binding of FF1 reached” value in assay [1] (6 mg peptide/ml, FIG. 1) is 100%.
Regarding KGYNYSYKSEMKVRPAK [C-Fic, b25 prints …], in assay [2] (6 mg peptide/ml, after 96 hours of incubation, cell type not stated (FF1 or BAEC)), the “extent of cell binding” value was “about 30%”. Besides, the “cell binding activity (BAEC), in words” value in assay [2] is “completely looses reactivity”; in assay [2] (listed as C-fic), “did not attach; also recorded: some activity”. Moreover, the “cell binding activity (FF1), in words” value in assay [1] (6 mg peptide/ml) is “no reactivity”; in assay [1] (6 mg peptide/ml, listed as C-fic) it was “did not attach; also recorded: looses its activity; also recorded: inactive”. Further, in assay [1] (12 mg peptide/ml, after 150 hours (FIG. 4b)), the “cell binding of FF1 reached” value turned out to be 100%.
On to “KTRWYSMKKTTMKIIPFNR [PreC, positive control peptide, reference compound]”, for which the “cell binding of FF1 reached” value in assay [1] (6 mg peptide/ml, FIG. 1) was determined as 100%.
